Data on five compounds can be found in ChEMBL document CHEMBL1128783, “N-Methyl and N-cyclopropylmethyl-14,14-[dithiobis[(2-oxo-2,1-ethanediyl)imino]]bis(7,8-dihydro-5-methyl-morphinone) MET-TAMO and N-CPM-MET-TAMO: Synthesis and opioid binding properties” (Bioorg Med Chem Lett, 1995).

Assay [1] in a line: Inhibitory activity against Opioid receptor delta 1 binding to bovine striatal membrane.
Assay [2] can be described thus: Inhibitory activity against Opioid receptor kappa1 binding to bovine striatal membrane.
In assay [3] the target is T1, Mu-type opioid receptor (Bos taurus, UniProt P79350). Kind of assay: Binding affinity towards Opioid receptor mu 1 using [3H]DAMGO expressed as Kd.
T1 sequence (P79350 whole entry): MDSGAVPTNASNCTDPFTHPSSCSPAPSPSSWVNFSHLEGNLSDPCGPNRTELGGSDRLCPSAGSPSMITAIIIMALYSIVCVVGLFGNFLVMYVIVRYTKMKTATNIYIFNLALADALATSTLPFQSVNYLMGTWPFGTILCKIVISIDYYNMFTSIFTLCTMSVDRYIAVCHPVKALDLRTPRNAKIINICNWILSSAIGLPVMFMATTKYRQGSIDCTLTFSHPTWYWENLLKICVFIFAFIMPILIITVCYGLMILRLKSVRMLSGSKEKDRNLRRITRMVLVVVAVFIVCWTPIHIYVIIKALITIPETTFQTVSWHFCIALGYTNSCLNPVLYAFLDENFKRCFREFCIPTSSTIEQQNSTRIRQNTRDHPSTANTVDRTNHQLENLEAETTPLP
Assay [4] addresses T1, Mu-type opioid receptor. Kind of assay: Inhibitory activity against Opioid receptor mu 1 binding to bovine striatal membrane. On the set-up: species or system Striatum.
Assay [5] concerns the target Mu-type opioid receptor (Bos taurus) (UniProt P79350). Kind of assay: Effect at dose 40 nM on wash-resistant inhibition of [3H]DAMGO binding to TPCK-treated membranes. On the set-up: scale not given: the % may be the effect or the level left.

Sequence of Mu-type opioid receptor (Bos taurus) (P79350 whole entry): as above

For orientation: IC50 means the concentration at which inhibition is half-maximal. In the case of `CN1CC[C@]23c4c5ccc(O)c4O[C@H]2C(=O)CC[C@@]3(NC(=O)CSSCC(=O)N[C@@]23CCC(=O)[C@@H]4Oc6c(O)ccc7c6[C@@]42CCN(C)[C@@H]3C7)[C@H]1C5`, the figures for the IC50 in assay [1] and in assay [2] were 11 nM and 41 nM, respectively. By Kd is commonly meant the equilibrium constant for the complex coming apart. `C[C@@]12Oc3c(O)ccc4c3[C@@]13CCN(CC1CC1)[C@H](C4)[C@]3(NC(=O)CSSCC(=O)N[C@@]13CCC(=O)[C@]4(C)Oc5c(O)ccc6c5[C@@]41CCN(CC1CC1)[C@@H]3C6)CCC2=O` displayed a dissociation constant Kd on Mu-type opioid receptor [3] of 0.4 nM. The compound also returned a half-maximal inhibitory concentration (IC50) at Mu-type opioid receptor [4] of 1.4 nM. Regarding `CN1CC[C@]23c4c5ccc(O)c4O[C@@]2(C)C(=O)CC[C@@]3(NC(=O)CSSCC(=O)N[C@@]23CCC(=O)[C@]4(C)Oc6c(O)ccc7c6[C@@]42CCN(C)C3C7)C1C5`, the half-maximal inhibitory concentration (IC50) at Mu-type opioid receptor [4] stood at 2.9 nM. As to `O=C(CSSCC(=O)N[C@@]12CCC(=O)[C@@H]3Oc4c(O)ccc5c4[C@@]31CCN(CC1CC1)[C@@H]2C5)N[C@@]12CCC(=O)[C@@H]3Oc4c(O)ccc5c4[C@@]31CCN(CC1CC1)[C@@H]2C5`, the figures for the IC50 (in assay [1]; on Mu-type opioid receptor [4]; in assay [2]) were 24 nM, 3.9 nM and 10 nM, respectively. The compound `OC(CS)C(O)CS` (centres undefined) came in with a Control in assay [5] of 107%.
